Measurements taken from patent US20110178171A1, “COMPOUNDS FOR CANCER THERAPY” (China Medical University, priority 2010, published 2011).
pIC50: −log10 of the molar value.

Legend:
[1] = system: gastric cancer cell line NCI-N87; experiment: MTT growth inhibition assay, NCI-N87; type: cell-based; conditions: NCI-N87, gastric carcinoma
Method: (§1) The results were determined by three independent experiments.
(§2) Besides, the above assay was also conducted on gastric cancer cell line NCI-N87, liver cancer cell line HepG2 and J5, lung cancer cell line A549, and oral cancer cell line OECM-1.

[2] = system: lung cancer cell line A549; experiment: MTT growth inhibition assay, A549; type: cell-based, human; conditions: A549, lung adenocarcinoma
Method: as §1, §2

caspase-3 = experiment: Caspase-3 activity for apoptosis detection (Caspase-Glo); type: cell-based, human; conditions: LNCaP cells, 24 h
Method: In General, drug can cause tumor apoptosis mediated activate caspase-3 leading to release fluoresce dye to detect by machine. Caspase-3 activity was measured using testis supernatants with the Caspase-Glo Assay System (Promega, Madison, Wis.) according to the manufacturer's instructions. Briefly, 50 μl of the Caspase-Glo buffer was added to 50 μl of tissue supernatants in a 96-well plate and incubated at room temperature for 60 minutes. Luminescence was measured using a Biotek synergy microplate reader (Biotek, Winooski, Vt.). Background activity levels, based on measurements in homogenization buffer only, were measured and subtracted from values in the testis tissue supernatants. All values were normalized to total protein content. Standard curves were used to determine the linearity of the responses.
Assays were carried out to examine whether K8 (Isochaihulactone) increases LNCaP cells caspase-3 activity which leads to tumor cell apoptosis. Briefly, LNCaP cells were treated with different concentrations of Z-K8 (0.25 to 4 μM) for 24 h. […] Thus, Z-K8 can be used in the treatment of prostate cancer.

cleaved caspase-3 = experiment: Immunohistochemical staining of xenograft tumors, cleaved caspase-3; type: in vivo; conditions: mice treated with 30 mg/kg (FIG. 8A)
Method: (§3) Mice xenograft tissue samples were fixed in 10% formalin and embedded in paraffin. After routine rehydration, antigen retrieval and blocking, the sections were incubated in the primary antibody at 4° C. overnight. The primary antibody was recognized by the biotinylated secondary antibody and visualized by vectastain avidin-biotin complex peroxidase system (ABC kit) as well as peroxidase substrate 3,3′-diaminobenzidine kit (DAB kit).
(§4) Immunohistochemical staining was conducted using a cleaved caspase-3-specific antibody. […] Similar staining was carried our using an AR-specific antibody.

PSA = experiment: RT-PCR analysis of PSA expression; type: cell-based; conditions: human cancer cells, 0.5 μM to 2 μM, 24 h, dose-dependent (FIG. 3A)
Method: Total RNA from LNCaP, PC3, 3T3 cells was isolated as described above. cDNA was synthesized by reverse transcription of 2 μg of total RNA using oligo(dT)12-18 and SuperScript II RNA reverse transcriptase (Invitrogen). The cDNA was then used as the template to amplify the corresponding DNA fragments by PCR using two sets of synthetic oligonucleotide primers. DNA amplification was performed by PCR with the Thermocycler 2400 (PerkinElmer Life and Analytical Sciences, Boston, Mass.) using the following parameters: 35 cycles of denaturing at 95° C. for 1 min, annealing at 60° C. for 1 min, and extension at 72° C. for 2 min. Primers used for the AR PCR amplifications are (F): 5′-ATGGTGAGCAGAGTGCCCTA-3′ (SEQ ID NO: 1) (R): 5′-GTGGTGCTGGAAGCCTCTCCT-3′ (SEQ ID NO: 2) PSA (F) 5′-GGTGACCAAGTTCATGCTGTG-3′ (SEQ ID NO: 3) (R) 5′-GTGTCCTTGATCCACTTCCG-3′ (SEQ ID NO: 4) products were separated on 2% agarose gels, stained with ethidium bromide, and visualized using the Fluor Chem imaging system (Alpha InnoTech, San Leandro, Calif.), and levels of glyceraldehyde-3-phosphate dehydrogenase were used as the control.
RT-PCR was conducted to examine the effect of Z-K8 on several human cancer cells. Briefly, the cells were treated with Z-K8 (0.5 μM to 2 μM) or Luteolin (as a positive control) for 24 h. […]

AR = experiment: Immunohistochemical staining of xenograft tumors, AR; type: in vivo; conditions: mice treated with 30 mg/kg (FIG. 8B)
Method: as §3, §4

LNCaP cells = experiment: Cell cycle analysis by flow cytometry; type: cell-based, human; conditions: 24 h
Method: The cell cycle was determined by flow cytometry with DNA staining to reveal the total amount of DNA. Approximately 5×10^5 of cells were incubated in various concentration of isochaihulactone for the indicated time. Cells were harvested by treating the cells with trypsin/EDTA. The cells were collected, washed with PBS, fixed with cold 70% ethanol overnight, and then stained with a solution containing […] PI, 10 mg/ml RNase A, and 0.1% Triton X-100 for 1 h in the dark. The cells will then pass through FACScan flow cytometer (equipped with a 488-nmargon laser) to measure the DNA content. The data was obtained and analyzed with CellQuest 3.0.1 (Becton Dickinson, Franklin Lakes, N.J.) and ModFitLT V2.0 software. The results are shown Table 4 and FIG. 4.
Assays were carried out to examine the effect of Z-K8 in inducing G2/M phase arrest and apoptosis in LNCaP cells. Briefly, the cells were treated with different concentrations of Z-K8 (ranging from 0.25 to 2 μM) for 24 h. The cell cycle analysis was done according to the method described above. As shown in FIG. 4 and Table 4, Z-K8 induced cell cycle G2/M arrest in LNCaP cells.

[3] = system: liver cancer cell line J5; experiment: MTT growth inhibition assay, J5; type: cell-based; conditions: J5, hepatocarcinoma
Method: as §1, §2

`COc1cc(/C=C2\C(=O)OCC2Cc2ccc3c(c2)OCO3)cc(OC)c1OC` (racemic) [Z-K8, Racemic (Z)-β-(3′,4′-Methylenedioxybenzyl)-α-(3′,4′,5′-trimethoxybenzylidene)-γ-butyrolactone] was tested, and the pIC50 [1] was less than 4.00, the pIC50 [2] was 5.01 and the “Caspase-3 Relative activity” value (caspase-3; 0.25 μM) was 1.347. For the same compound, the “Caspase-3 Relative activity” value (caspase-3; 0.5 μM) was 1.274, the “Caspase-3 Relative activity” value (caspase-3; 1 μM) was 1.784 and the “Caspase-3 Relative activity” value (caspase-3; 2 μM) was 2.399. For the same compound, the “Caspase-3 Relative activity” value (caspase-3; 4 μM) was 6.604, the “expression of cleaved caspase-3 in tumors (IHC) versus control” value (cleaved caspase-3) was “increased more” and the “PSA expression (RT-PCR)” value (PSA) was “down regulated”. For the same compound, the “expression of AR in tumors (IHC) versus control” value (AR) was “weaker”, the “Cells in phase (%) G0/G1” value (LNCaP cells; 0.25 μM) was 63.56% and the “Cells in phase (%) G2/M” value (LNCaP cells; 0.25 μM) was 18.35%. For the same compound, the “Cells in phase (%) S” value (LNCaP cells; 0.25 μM) was 5.42%, the “Cells in phase (%) Sub-G1” value (LNCaP cells; 0.25 μM) was 0.48% and the “Cells in phase (%) G0/G1” value (LNCaP cells; 0.5 μM) was 48.30%. For the same compound, the “Cells in phase (%) G2/M” value (LNCaP cells; 0.5 μM) was 24.99%, the “Cells in phase (%) S” value (LNCaP cells; 0.5 μM) was 6.61% and the “Cells in phase (%) Sub-G1” value (LNCaP cells; 0.5 μM) was 3.24%. The “Cells in phase (%) G0/G1” value (LNCaP cells; 1 μM) was 57.27%, the “Cells in phase (%) G2/M” value (LNCaP cells; 1 μM) was 10.16% and the “Cells in phase (%) S” value (LNCaP cells; 1 μM) was 4.70%. The “Cells in phase (%) Sub-G1” value (LNCaP cells; 1 μM) was 8.19%, the “Cells in phase (%) G0/G1” value (LNCaP cells; 2 μM) was 22.25% and the “Cells in phase (%) G2/M” value (LNCaP cells; 2 μM) was 43.92%. The “Cells in phase (%) S” value (LNCaP cells; 2 μM) was 8.39%, the “Cells in phase (%) Sub-G1” value (LNCaP cells; 2 μM) was 5.73% and the pIC50 [3] was 5.60.
